Assay results: paper PMC6151456, “Screening a Natural Product-Based Library against Kinetoplastid Parasites” (Molecules : A Journal of Synthetic Chemistry and Natural …, 2017)
Structures can show the parent of a compound that is named as a salt. Where two headings read alike, the source gives them in different places.

Key:
malaria infection = tested on: malaria infection; design: method as in PMID 25490858; details: mouse, oral administration; cited from earlier work
P. falciparum (3D7) = details: read-out: IC50, chloroquine-sensitive (3D7) P. falciparum; cited from earlier work
3T3 host cells [1] = test: 3T3 host cell cytotoxicity (selectivity); type: cell-based, mouse; details: relative to T. cruzi
Description: (§1) Primary screening against T. b. brucei was undertaken at 5 µM and for T. cruzi at 10 µM final concentrations.
(§2) The efficacy of compounds against T. cruzi was undertaken using a phenotypic, high-throughput image-based assay as previously described.

HEK-293 cells = test: HEK-293 resazurin viability assay (cytotoxicity, selectivity); type: cell-based, human
Description: as §1
Cytotoxicity testing was undertaken as previously described.

[2] = tested on: T. cruzi intracellular amastigotes; test: T. cruzi intracellular amastigote image-based assay; type: cell-based, Trypanosoma cruzi; details: for IC50: Trypanosoma cruzi, intracellular amastigotes, n = 2, top 18.3 µM, read-out: IC50 (mean ± SD), T. cruzi
Description: (§3) For the primary screen, compounds were prepared as a stock concentration of 5 mM in 100% DMSO and tested in duplicate points for two independent experiments (n = 2) at final assay concentrations of 20 µM and 16.7 µM for the L. donovani intracellular amastigote and promastigote viability assays, respectively. Primary screening against T. b. brucei was undertaken at 5 µM and for T. cruzi at 10 µM final concentrations. […] These compounds were then retested in a 14 point format to determine the IC50 value against the parasite, and against HEK-293, THP-1 and 3T3 cells to determine the selectivity to the parasite. […] A top dose of 20 µM was used in the T. b. brucei assay and 18.3 µM for T.cruzi assay, in 14 point dose repsonse curves as described.
as §2

P. falciparum (Dd2) = details: read-out: IC50, multi-drug resistant (Dd2) P. falciparum; cited from earlier work
[3] = tested on: T. b. brucei bloodstream form strain 427; test: T. b. brucei resazurin viability assay; type: cell-based, Trypanosoma brucei brucei; details: for IC50: Trypanosoma brucei, n = 2, 14 point dose response, top 20 µM, read-out: IC50 (mean ± SD), T. b. brucei
Description: as §3
The efficacy of compounds against T. b. brucei bloodstream form was evaluated using a resazurin-based assay, previously described in the literature.

3T3 host cells [4] = tested on: 3T3 host cells; design: method as in PMID 25033456; details: relative to T. cruzi; cited from earlier work
[5] = tested on: L. donovani DD8 promastigotes; test: L. donovani DD8 promastigote viability assay (resazurin); type: cell-based, Leishmania donovani; details: Leishmania donovani; at 16.7 µM
Description: as §3
This assay was established to assess the activity of the compound library on the extracellular form of the parasites. An initial cell density of 1 × 10^5 parasites/mL was inoculated into a 75 cm^2 flask (in a total of 30 mL of M199 medium + 10% (v/v) HIFBS) and incubated at 27 °C. After 96 h the parasites reached the mid-log phase and were seeded in black, clear bottom 384-well plates (Greiner-bio-one®, Monroe, UT, USA) at a concentration of 5 × 10^5 parasites/mL in a volume of 55 µL using a Bravo automated liquid handling platform (Agilent, Santa Clara, CA, USA). Compound stocks were diluted 1:25 in M199 media without HIFBS using a dilution plate (Greiner-bio-one®, Monroe, UT, USA). The compounds were dispensed in 5 µL using a Bravo and parasites incubated for an additional 68 h at 27 °C. Resazurin (Cayman Chemicals®, Ann Arbor, MI, USA) at 0.142 mM final assay concentration was then dispensed into plates at a volume of 10 µL/well using a Multidrop™ 384 Reagent Dispenser (Thermo Scientific®, Newington, NH, USA) and incubated at 27 °C. The plates were read after 4 h on an EnVision™ Multilabel plate reader (PerkinElmer, Waltham, MA, USA) using fluorometry with an excitation of 530 nm and emission 590 nm. For the L. donovani DD8 promastigote viability assay, 1 µM of amphotericin B was used as positive control and 0.4% DMSO as negative control.

T. cruzi [6] = tested on: T. cruzi; design: method as in PMID 25033456; details: cited from earlier work
T. b. brucei [7] = tested on: T. b. brucei; design: method as in PMID 20696141; details: cited from earlier work
[8] = tested on: L. donovani (MHOM/SD/62/1S-CL2D) axenic amastigotes; design: method as in PMID 15679330; details: strain MHOM/SD/62/1S-CL2D; cited from earlier work
[9] = tested on: L. mexicana intracellular amastigotes; design: method as in PMID 15679330; details: at 41.89 µM; cited from earlier work
THP-1 cells = test: THP-1 cytotoxicity (selectivity); type: cell-based, human; details: relative to L. donovani DD8 intracellular amastigotes
Description: as §3

T. b. brucei variant 221 = details: cited from earlier work
[10] = tested on: L. donovani DD8 intracellular amastigotes; test: L. donovani DD8 intracellular amastigote high content imaging assay; type: cell-based, Leishmania donovani; details: Leishmania donovani; n = 2; 14 point dose response, top 20 µM; read-out: IC50 (mean ± SD), L. donovani DD8 intracellular amastigotes
Description: as §3
A high content, high-throughput imaging assay was used to identify compounds active against L. donovani DD8 intracellular amastigotes as described previosuly.

T. b. brucei [11] = tested on: T. b. brucei; design: method as in PMID 18833031; details: cited from earlier work
T. cruzi [12] = tested on: T. cruzi; design: method as in PMID 28498323; details: cited from earlier work
T. b. rhodesiense = tested on: T. b. rhodesiense; design: method as in PMID 28498323; details: cited from earlier work
L. donovani = tested on: L. donovani; design: method as in PMID 28498323; details: cited from earlier work
[13] = tested on: NF54 strain of Plasmodium falciparum; design: method as in PMID 28498323; details: read-out: IC50, P. falciparum NF54; cited from earlier work
L. donovani DD8 = tested on: L. donovani DD8; design: method as in PMID 7592170; details: compared to other strains; cited from earlier work

For `NCCc1c[nH]c2c1C(=O)C1=C(NC=CS1(=O)=O)C2=O` [Compound 3, Thiaplakortone A], the suppression of parasitemia (malaria infection) is listed as “did not suppress parasitemia”, the IC50 (P. falciparum (3D7)) is listed as 0.051 µM and the “Selectivity index (SI) compared to 3T3 cells” value (3T3 host cells [1]) is listed as 1.06. For the same compound, the “Selectivity index (SI) compared to HEK-293 cells” value (HEK-293 cells; relative to T. b. brucei) was 0.70, the “Selectivity index (SI) compared to HEK-293 cells” value (HEK-293 cells; relative to T. cruzi) was 0.53 and the IC50 [2] was 4.26 ± 0.65 µM. The IC50 (P. falciparum (Dd2)) was 0.0066 µM and the IC50 [3] was 3.94 ± 0.78 µM.

In the case of `OC(c1cc(C(F)(F)F)nc2c(C(F)(F)F)cccc12)C1CCCCN1` (stereo not drawn) [Compound 8, Mefloquine HCl, reference compound], the “SI to 3T3 host cells” value (3T3 host cells [4]) is given as 2, the inhibition at 16.7 µM [5] is given as 100% and the EC50 (T. cruzi [6]) is given as 6.1 µM. The “Selectivity index (SI) compared to 3T3 cells” value (3T3 host cells [1]) was over 1.70, the “Selectivity index (SI) compared to HEK-293 cells” value (HEK-293 cells; relative to T. b. brucei) was 7.97 and the “Selectivity index (SI) compared to HEK-293 cells” value (HEK-293 cells; relative to T. cruzi) was over 5.06. It also gave an IC50 [2] of 3.96 ± 0.58 µM and an IC50 [3] of 0.62 ± 0.06 µM.

For `CC[C@H]1CN2CCc3cc(OC)c(OC)cc3[C@@H]2C[C@@H]1C[C@H]1NCCc2cc(OC)c(OC)cc21` [Compound 10, Emetine dihydrochloride, reference compound], the inhibition at 16.7 µM [5] is given as 100% and the IC50 (T. b. brucei [7]) is given as 7.9 µM.

In the case of `COc1c(C)c(O)c(C(=O)/C=C/c2ccccc2)c(O)c1C` [Compound 13, (E)-1-(2,6-dihydroxy-4-methoxy-3,5-dimethylphenyl)-3-phenylprop-2-en-1-one], the IC50 [8] is given as 16.8 ± 4.35 µM, the inhibition at 16.7 µM [5] is given as 100% and the “reduction in infection of L. mexicana intracellular amastigotes” value [9] is given as 96 ± 2%. The “Selectivity index (SI) compared to THP-1 cells” value (THP-1 cells) was 3.59, the IC50 (T. b. brucei variant 221) was 21.1 ± 3.68 µM and the IC50 [10] was 5.65 ± 0.26 µM. The “Selectivity index (SI) compared to HEK-293 cells” value (HEK-293 cells; relative to L. donovani DD8 intracellular amastigotes) was ~ 12, the “Selectivity index (SI) compared to HEK-293 cells” value (HEK-293 cells; relative to L. donovani DD8 intracellular amastigotes, listed as Chalcone analogue (13)) was 11.87 and the “activity against T. cruzi” value [2] was “no significant activity”. For the same compound, the “activity against T. b. brucei” value [3] was “no significant activity”.

For `COc1ccc2c(c[n+](C)c3c4cc5c(cc4ccc23)OCO5)c1OC` [Compound 15, Chelerythrine chloride, reference compound], the “Selectivity index (SI) compared to HEK-293 cells” value (HEK-293 cells; relative to T. b. brucei, listed as Chelerythrine chloride (15)) is listed as over 18.71, the IC50 (T. b. brucei [11]) is listed as 1.3 µM and the IC50 [3] is listed as 0.23 ± 0.04 µM.

For `CCCCCCC/C=C/C=C/C(=O)NCCc1ccc(O)cc1` [dodeca-2E,4E-dienoic acid 4-hydroxy-2-phenyl-ethylamide], the IC50 (T. cruzi [12]) is listed as 1.88 µM, the IC50 (T. b. rhodesiense) is listed as 2.26 ± 0.18 µM and the IC50 (L. donovani) is listed as 4.19 ± 1.64 µM. For the same compound, the IC50 [13] was 3.18 ± 0.2 µM.

For parmomycin, the “activity against L. donovani DD8” value (L. donovani DD8) is listed as “negligible activity”.
